Data from patent US9586986B2, “Substituted 7-deazapurine ribonucleosides for therapeutic uses” (Institute of Organic Chemistry and Biochemistry ASCR, v.v.i., priority 2014, dated 2017).

Assays:
Assay type in all cases: cell-based
HCT116p53-/- = assay: Cytostatic/cytotoxic MTT assay, HCT116p53-/-; conditions: Homo sapiens, HCT-116; 72 h incubation; read-out: MTT, IC50 HCT116 p53-/-
Source text: (§1) Unless otherwise stated, all cells were purchased from the […] (ATCC). The CCRF-CEM line is derived from T lymphoblastic leukemia, evincing high chemosenzitivity, K562 represent cells from a […] patient sample with bcr-abl translocation, HCT116 is colorectal tumor cell line and its p53 gene knock-down counterpart (HCT116p53−/−, Horizon Discovery, UK) is a model of human cancers with p53 inactivation frequently associated with poor prognosis, A549 cell line is lung adenocarcinoma. The daunorubicin resistant subline of CCRF-CEM cells (CEM-DNR bulk) and paclitaxel resistant subline K562-TAX were selected in our laboratory by cultivation of maternal cell lines in increasing concentrations of daunorubicine or paclitaxel, respectively. The CEM-DNR cells overexpress mrp-1 and mdr-1 genes, while K562-TAX cells overexpress mdr-1 only. Both proteins belong to the family of ABC transporters and are involved in the primary and/or acquired multidrug resistance phenomenon (ref.: Gottesman, M. M.; Fojo, T.; Bates, S. E. Multidrug resistance in cancer: role of ATP-dependent transporters. Nat. Rev. Cancer. 2002, 2, 48-58. (b) Noskova, V.; Dzubak, P.; Kuzmina, G.; Ludkova, A.; Stehlik, D.; Trojanec, R.; Janostakova, A.; Korinkova, G.; Mihal, V.; Hajduch, M. In vitro chemoresistance profile and expression/function of MDR associated proteins in resistant cell lines derived from CCRF-CEM, K562, A549 and MDA MB 231 parental cells. Neoplasma 2002, 49, 418-425). Non-malignant MRC-5 and BJ cells, derived from normal human fibroblasts, were used as controls. The cells were maintained in Nunc/Corning 80 cm^2 plastic tissue culture flasks and cultured in cell culture medium (DMEM/RPMI 1640 with 5 g/L glucose, 2 mM glutamine, 100 U/mL penicillin, 100 µg/mL streptomycin, 10% fetal calf serum, and NaHCO3). Cell suspensions were prepared and diluted according to the particular cell type and the expected target cell density (25,000-30,000 cells/well based on cell growth characteristics). Cells were added by pipette (80 L) into 96-well microtiter plates. Inoculates were allowed a pre-incubation period of 24 h at 37° C. and 5% CO2 for stabilization. Four-fold dilutions, in 20-L aliquots, of the intended test concentration were added to the microtiter plate walls at time zero. All test compound concentrations were examined in duplicate. Incubation of the cells with the test compounds lasted for 72 h at 37° C., in a 5% CO2 atmosphere at 100% humidity. At the end of the incubation period, the cells were assayed using MTT. Aliquots (10 L) of the MTT stock solution (5 mg/ml) were pipetted into each well and incubated for another 1-4 h. After this incubation period the formazan produced was dissolved by addition of 100 µL/well of 10% aq SDS (pH 5.5), followed by a further incubation at 37° C. overnight. The optical density was measured at 540 nm. The IC50 value, the drug concentration inhibiting the cell growth by 50%, was calculated from appropriate dose-response curves.
(§2) In vitro cytotoxic/cytostatic activity final nucleosides 1-5 was initially evaluated against […] cell lines derived from human solid tumors including lung (A549 cells) and colon (HCT116 and HCT116p53−/−) carcinomas, as well as leukemia cell lines (CCRF-CEM, CEM-DNR, K562 and K562-TAX) and, for comparison, non-malignant BJ and MRC-5 fibroblasts. Concentrations inhibiting the cell growth by 50% (IC50) were determined using a quantitative metabolic staining with 3-(4,5-dimethylthiazol-2-yl)-2,5-diphenyltetrazolium bromide (MTT) (ref.: Denizot, F.; Lang, R. Rapid colorimetric assay for cell growth and survival: Modifications to the tetrazolium dye procedure giving improved sensitivity and reliability. J. Immunol. Meth. 1986, 89, 271-277) following a 3-day treatment.
(§3) Multidrug resistance is a major therapeutic problem in cancer chemotherapy. […]

CCRF-CEM = assay: Cytostatic/cytotoxic MTT assay, CCRF-CEM; conditions: Homo sapiens, 72 h incubation, read-out: MTT, IC50 CCRF-CEM
Source text: as §1, §2

HepG2 = assay: XTT cytotoxicity assay, HepG2; conditions: Homo sapiens, HepG2; 72 h incubation; read-out: XTT, IC50 HepG2
Experimental: HL-60, Hela S3 and HepG2 cell lines (ATCC) were grown in RPMI-1640 or DMEM medium supplemented with 10% fetal calf serum, […] of streptomycin, 200 U/mL of penicillin G and 4 mM glutamine in a humidified atmosphere containing 5% CO2 at 37° C. Sensitivity of these cell lines to the synthesized compounds was assessed with the use of XTT cell proliferation kit II (Roche Diagnostics GmbH, Mannheim, Germany) according to the manufacturer's instructions. Briefly, cells were seeded in a 96-well plate at a density of 10,000 cells per well (90 μL). After 24 h, 10 μL of the tested compounds were added to the culture media at desired concentration range and incubated for 72 h. After that 50 μL of the XTT solution was added (1 mg/mL XTT+0.383 mg/mL N-methyl dibenzopyrazine methyl sulfate). The absorbance was recorded at 495 nm following a 2 h-incubation with the dye. IC50 values were determined by non-linear regression method using GraphPad Prism version 5.00 for Windows (GraphPad Software, La Jolla, Calif., USA).

[1] = tested on: HCV subtype 2A replicon in Huh-7 cells; assay: HCV sub-genomic reporter replicon assay, subtype 2A; conditions: Hepatitis C virus; Huh-7 cells, HCV subtype 2A replicon; read-out: Replicon 2A EC50
Experimental: (§4) Compounds were also tested in Huh-7 cells harboring sub-genomic reporter replicons derived from HCV subtypes 1B and 2A (ref.: Stuyver, L. J.; Whitaker, T.; McBrayer, T. R.; Hernandez-Santiago, B. I.; Lostia, S.; Tharnish, P. M.; Ramesh, M.; Chu, C. K.; Jordan, R.; Shi, J. X.; Rachakonda, S.; Watanabe, K. A.; Otto, M. J.; Schinazi, R. F. Antimicrob. Agents Chemother. 2003, 47, 244-254).

HCT116 = assay: Cytostatic/cytotoxic MTT assay, HCT116; conditions: Homo sapiens, HCT-116; 72 h incubation; read-out: MTT, IC50 HCT116
Source text: as §1, §2, §3

[2] = tested on: Huh-7 cells harboring replicon 1B; assay: Cytotoxicity in replicon 1B cells; conditions: HCV subtype 1B replicon
Experimental: as §4

K562-TAX = assay: Cytostatic/cytotoxic MTT assay, K562-TAX; conditions: Homo sapiens, paclitaxel resistant subline, 72 h, read-out: MTT, IC50 K562-TAX
Source text: as §1, §2, §3

CEM-DNR-bulk = assay: Cytostatic/cytotoxic MTT assay, CEM-DNR-bulk; conditions: Homo sapiens; daunorubicin resistant subline, 72 h; read-out: MTT, IC50 CEM-DNR-bulk
Source text: as §1, §2, §3

MRC-5 = assay: Cytostatic/cytotoxic MTT assay, MRC-5 fibroblasts; conditions: Homo sapiens, MRC5; non-malignant fibroblasts, 72 h; read-out: MTT, IC50 MRC-5
Source text: as §1, §2

COc1ncnc2c1c(-c1ccco1)cn2[C@@H]1O[C@H](CO)[C@@H](O)[C@H]1O [Compound 1a, 5-(Furan-2-yl)-4-methoxy-7-(β-D-ribofuranosyl)-7H-pyrrolo[2,3-d]pyrimidine]
IC50 (HCT116p53-/-): 0.04 µM
IC50 (CCRF-CEM): 0.02 µM
IC50 (HepG2): 0.3 µM
EC50 [1]: 0.03 µM
IC50 (HCT116): 0.04 µM
CC50 [2]: > 44 µM
IC50 (K562-TAX): 0.38 µM
IC50 (CEM-DNR-bulk): 0.16 µM
IC50 (MRC-5): 1.7 µM

COc1ncnc2c1c(-c1ccoc1)cn2[C@@H]1O[C@H](CO)[C@@H](O)[C@H]1O [Compound 1b, 5-(Furan-3-yl)-4-methoxy-7-(β-D-ribofuranosyl)-7H-pyrrolo[2,3-d]pyrimidine]
IC50 (HCT116p53-/-): 0.13 µM
IC50 (CCRF-CEM): 0.11 µM
IC50 (HepG2): 0.29 µM
EC50 [1]: 8.28 µM
IC50 (HCT116): 0.11 µM
CC50 [2]: > 44 µM
IC50 (K562-TAX): 2.82 µM
IC50 (CEM-DNR-bulk): > 20 µM
IC50 (MRC-5): 29.4 µM

COc1ncnc2c1c(-c1cccs1)cn2[C@@H]1O[C@H](CO)[C@@H](O)[C@H]1O [Compound 1c, 4-Methoxy-7-(β-D-ribofuranosyl)-5-(thiophen-2-yl)-7H-pyrrolo[2,3-d]pyrimidine]
IC50 (HCT116p53-/-): 0.44 µM
IC50 (CCRF-CEM): 0.09 µM
IC50 (HepG2): 13.9 µM
EC50 [1]: > 44 µM
IC50 (HCT116): 0.08 µM
CC50 [2]: > 44 µM
IC50 (K562-TAX): 6.2 µM
IC50 (CEM-DNR-bulk): 12.1 µM
IC50 (MRC-5): 43.2 µM

COc1ncnc2c1c(-c1ccsc1)cn2[C@@H]1O[C@H](CO)[C@@H](O)[C@H]1O [Compound 1d, 4-Methoxy-7-(β-D-ribofuranosyl)-5-(thiophen-3-yl)-7H-pyrrolo[2,3-d]pyrimidine]
IC50 (HCT116p53-/-): 0.14 µM
IC50 (CCRF-CEM): 2.57 µM
IC50 (HepG2): 0.43 µM
EC50 [1]: > 44 µM
IC50 (HCT116): 0.12 µM
CC50 [2]: > 44 µM
IC50 (K562-TAX): 3.45 µM
IC50 (CEM-DNR-bulk): 7.64 µM
IC50 (MRC-5): 75.3 µM

COc1ncnc2c1c(-c1ccccc1)cn2[C@@H]1O[C@H](CO)[C@@H](O)[C@H]1O [Compound 1e, 4-Methoxy-5-phenyl-7-(β-D-ribofuranosyl)-7H-pyrrolo[2,3-d]pyrimidine]
IC50 (HCT116p53-/-): > 20 µM
IC50 (CCRF-CEM): > 20 µM
IC50 (HepG2): > 20 µM
EC50 [1]: > 44 µM
IC50 (HCT116): > 20 µM
CC50 [2]: > 44 µM
IC50 (K562-TAX): > 20 µM
IC50 (CEM-DNR-bulk): > 20 µM
IC50 (MRC-5): > 100 µM

COc1ncnc2c1c(-c1cc3ccccc3o1)cn2[C@@H]1O[C@H](CO)[C@@H](O)[C@H]1O [Compound 1f, 5-(Benzofuran-2-yl)-4-methoxy-7-(β-D-ribofuranosyl)-7H-pyrrolo[2,3-d]pyrimidine]
IC50 (HCT116p53-/-): 14.5 µM
IC50 (CCRF-CEM): 5.37 µM
IC50 (HepG2): > 20 µM
EC50 [1]: 10.2 µM
IC50 (HCT116): 13.8 µM
CC50 [2]: > 44 µM
IC50 (K562-TAX): 13.1 µM
IC50 (CEM-DNR-bulk): 10.8 µM
IC50 (MRC-5): 65.6 µM

C#Cc1cn([C@@H]2O[C@H](CO)[C@@H](O)[C@H]2O)c2ncnc(OC)c12 [Compound 1g, 5-Ethynyl-4-methoxy-7-(β-D-ribofuranosyl)-7H-pyrrolo[2,3-d]pyrimidine]
IC50 (HCT116p53-/-): 5.14 µM
IC50 (CCRF-CEM): > 20 µM
IC50 (HepG2): 12.7 µM
EC50 [1]: > 44 µM
IC50 (HCT116): 4.06 µM
CC50 [2]: > 44 µM
IC50 (K562-TAX): 0.38 µM
IC50 (CEM-DNR-bulk): 3.49 µM
IC50 (MRC-5): > 100 µM

COc1ncnc2c1c(I)cn2[C@@H]1O[C@H](CO)[C@@H](O)[C@H]1O [Compound 1h, 5-iodo-4-methoxy-7-(β-D-ribofuranosyl)-7H-pyrrolo[2,3-d]pyrimidine, reference compound]
IC50 (HCT116p53-/-): > 20 µM
IC50 (CCRF-CEM): 1.15 µM
IC50 (HepG2): > 20 µM
EC50 [1]: > 44 µM
IC50 (HCT116): > 20 µM
CC50 [2]: > 44 µM
IC50 (K562-TAX): 14.8 µM
IC50 (CEM-DNR-bulk): > 20 µM
IC50 (MRC-5): 63 µM

CSc1ncnc2c1c(-c1ccco1)cn2[C@@H]1O[C@H](CO)[C@@H](O)[C@H]1O [Compound 2a, 5-(Furan-2-yl)-4-methylsulfanyl-7-(β-D-ribofuranosyl)-7H-pyrrolo[2,3-d]pyrimidine]
IC50 (HCT116p53-/-): 0.01 µM
IC50 (CCRF-CEM): 0.05 µM
IC50 (HepG2): 0.22 µM
EC50 [1]: 0.05 µM
IC50 (HCT116): 0.02 µM
CC50 [2]: 38.6 µM
IC50 (K562-TAX): 0.21 µM
IC50 (CEM-DNR-bulk): 0.23 µM
IC50 (MRC-5): 73.9 µM

CSc1ncnc2c1c(-c1ccoc1)cn2[C@@H]1O[C@H](CO)[C@@H](O)[C@H]1O [Compound 2b, 5-(Furan-3-yl)-4-methylsulfanyl-7-(β-D-ribofuranosyl)-7H-pyrrolo[2,3-d]pyrimidine]
IC50 (HCT116p53-/-): 0.1 µM
IC50 (CCRF-CEM): 14.2 µM
IC50 (HepG2): > 15 µM
EC50 [1]: > 44 µM
IC50 (HCT116): 0.04 µM
CC50 [2]: > 44 µM
IC50 (K562-TAX): 3.25 µM
IC50 (CEM-DNR-bulk): > 20 µM
IC50 (MRC-5): > 100 µM

CSc1ncnc2c1c(-c1cccs1)cn2[C@@H]1O[C@H](CO)[C@@H](O)[C@H]1O [Compound 2c, 4-Methylsulfanyl-7-(β-D-ribofuranosyl)-5-(thiophen-2-yl)-7H-pyrrolo[2,3-d]pyrimidine]
IC50 (HCT116p53-/-): > 20 µM
IC50 (CCRF-CEM): > 20 µM
IC50 (HepG2): > 20 µM
EC50 [1]: > 44 µM
IC50 (HCT116): > 20 µM
CC50 [2]: > 44 µM
IC50 (K562-TAX): > 20 µM
IC50 (CEM-DNR-bulk): > 20 µM
IC50 (MRC-5): > 100 µM

CSc1ncnc2c1c(-c1ccsc1)cn2[C@@H]1O[C@H](CO)[C@@H](O)[C@H]1O [Compound 2d, 4-Methylsulfanyl-7-(β-D-ribofuranosyl)-5-(thiophen-3-yl)-7H-pyrrolo[2,3-d]pyrimidine]
IC50 (HCT116p53-/-): > 20 µM
IC50 (CCRF-CEM): > 20 µM
IC50 (HepG2): > 15 µM
EC50 [1]: > 44 µM
IC50 (HCT116): > 20 µM
CC50 [2]: > 44 µM
IC50 (K562-TAX): > 20 µM
IC50 (CEM-DNR-bulk): > 20 µM
IC50 (MRC-5): > 100 µM
